Experimental data published in patent US9005969B2, “Generation of novel bone forming cells (monoosteophils) from LL-37 treated monocytes” (City of Hope, priority 2010, dated 2015).

Tests used:
monocytes [1] = assay: Cytokine multiplex analysis of supernatants of differentiated monocytes; type: cell-based, human; parameters: GM-CSF release / MIP-1α release / MIP-1β release / MIG release / RANTES release / MCP-1 release / IL-2R release / VEGF release / G-CSF release / HGF release / FGF-Basic release / IL-4 release / IL-7 release / IFN-α release / IFN-γ release: unit not given here; conditions: for FGF-Basic release / G-CSF release / HGF release / IFN-α release / IFN-γ release / IL-2R release / IL-4 release / IL-7 release / MCP-1 release / MIG release / MIP-1α release / MIP-1β release / RANTES release / VEGF release / GM-CSF release: supernatant, monocytes differentiated 6 days, Mean ± SEM
Excerpt: (§1) This study was approved by the Institutional Human Subject's Review Board (City of Hope National Medical Center). Peripheral blood mononuclear cells (PBMCs) were isolated from citrated blood by centrifugation over Ficoll-Paque Plus (GE healthcare biosciences, Pittsburgh, Pa., USA) density gradient. Monocytes were separated using EasySep® Human Monocyte Enrichment Kit (StemCell Technologies Inc, Vancouver, Canada) from PBMCs. The purified monocytes were stained with anti-CD14-FITC and checked by using flow cytometry FACSCanton II. Monocytes with >95% purity were suspended at 1×10^6 cells/mL in RPMI 1640 medium supplement with 10% FBS (FBS contained <5 pg/100 mL LPS).
(§2) After isolation of monocytes as described in the examples above, monocytes were treated with serial dose of LL-37 (0.625 μM, 1.25 μM, 2.5 μM, 5 μM, or 10 μM) for differentiation for 3 days, 6 days, 14 days or more. After incubating for 6 days, cultures were fed every 2 days by removing half of the supernatant and adding fresh medium. For macrophage differentiation, monocytes were treated with medium only (Falzoni et al. 1995), with 100 ng/mL LPS (Palucka et al. 1999), 10 ng/mL GM-CSF (macrophage 1, Mφ1), or 50 ng/mL M-CSF (macrophage 2, Mφ2) for 6 days (Verreck et al. 2004). Monocyte-derived DCs were generated with 1,000 U/mL GM-CSF and 500 units/mL IL-4 (Verreck et al. 2004) or GM-CSF and 1000 U/mL IFNα (Tosello et al. 2009). Osteoclasts were differentiated from monocytes in the presence of RANKL and M-CSF (both at 25 ng/mL) (Sorensen et al. 2007).
Fresh monocytes were plated at 1×10^6 cells/mL in RPMI 1640 medium containing 10% FBS in 48-well plates and incubated with medium only, LL-37, LPS, GM-CSF, M-CSF, M-CSF/RANKL for 6 days, or/and 14 days and 21 days. Supernatant was collected and analyzed using the Human Cytokine 30-Plex antibody bead kit from Biosource International Inc., including IL-1-β, IL-1 ra, IL-2, IL-2R, IL-4, IL-5, IL-6, IL-7, IL-8, IL-10, IL-12, IL-13, IL-15, IL-17, TNFα, IFNα, IFNγ, G-CSF, GM-CSF, MIP-1α, MIP-1β, MIG, RANTES, eotaxin, MCP-1, IP-10, VEGF, HGF, FGF-basic, and […]. Cytokine concentrations were calculated using Bio-Plex Manager 3.0 software with an eight-parameter, curve-fitting algorithm applied for standard curve calculations (Zhang et al. 2008b).

monocytes [2] = assay: Monocyte differentiation and survival (morphology, cell number); type: cell-based, human
Excerpt: as §1
Negatively isolated monocytes at the concentration of 1×10^6/mL were incubated in […] medium with 10% FBS in the presence or absence of LL-37. […] The maximum effect occurred at the dose of 5 μM LL-37 after which higher doses (≧10 μM) led to decreased cell numbers due to toxicity of LL-37 >10 μM (Zhang et al. 2008a; Johansson et al. 1998). After 14 days, the cell number of untreated controls decreased further, but the LL-37-differentiated monocytes survived with an apparent further increase in the diameter of the round adherent cells. […] There was no evidence of cell-cell fusion in the creation of giant cells. Together these analyses indicate that LL-37 can progressively differentiate monocytes into large round adherent cells at early times with giant cells and irregular shaped cells appearing at later times.
as §2
Monocytes were plated in culture media and treated with LL-37 (dose shown in the figures), LPS (100 ng/mL), GM-CSF (10 ng/mL), M-CSF (50 ng/mL), GM-CSF (1,000 U/mL)/IL-4 (500 units/mL), GM-CSF (1,000 U/mL)/IFNα (1,000 U/mL), or MCSF/RANKL (both at 25 ng/mL) and photographed with the Leica DMI 3000B (Leica Microsystems Inc, Bonnockburn, Ill. 60015) inverted microscope.

monocytes [3] = assay: Bone resorption assay on BioCoat Osteologic Discs (phase contrast, SEM, von Kossa); type: cell-based, human
Method: The resorbing activity was evaluated by using BioCoat™ Osteologic™ Discs purchased from BD Biosciences as a mineral matter in 24-well plate. […] The plates were washed by rinsing distilled water and pit formation was observed by light microscopy (Yuasa et al. 2007) and scanning electron microscopy (SEM). […]
BioCoat™ Osteologic™ Discs fixed in 2.5% glutaraldehyde in 0.1 M phosphate buffer, pH 7.2 (buffer A) for 1 hour from bone resorption assay were washed three times in buffer A, postfixed with 1% osmium tetroxide in buffer A, then dehydrated in graded ethanol. The 100% ethanol solution was then replaced by propylene oxide, and the cells were embedded in Eponate. Thin sections were stained with uranyl acetate and lead citrate and examined with a FEI TECNAI G2 electron microscope.
Discs were photographed using phase contrast microscopy (magnification 200×).

monocytes [4] = assay: Phagocytosis of fluorescent labeled latex beads; type: cell-based, human; conditions: 6-day differentiated cells, beads 1:500, 1 hour at 37° C.
Method: 6-day LL-37-, medium-, LPS-, GM-CSF-, and M-CSF-differentiated monocytes (1×10^6/mL) in tissue culture medium supplemented with 10% FBS in a 24-well plate were mixed with fluorescent labeled latex beads at a multiplicity ratio of 1:500, and incubated for 1 hour at 37° C. After being washed three times, cells were analyzed using FACSCanton II and Flowjo software.

monocytes [5] = assay: Flow cytometry of cell surface markers; type: cell-based, human; conditions: 6 days
Excerpt: For cell surface staining, cells were washed with PBS, blocked with 10% human serum in PBS, stained with isotype controls and antibodies described in the figures, washed 3 times with 1% BSA PBS, and analyzed with a FACSCanton II. For intracellular staining, cells were washed with PBS, fixed with 1% paraformaldehyde in PBS, permeabilized in PBS buffer containing 0.1% saponin (Sigma-Aldrich) and 2% BSA, and stained with primary isotype controls and antibodies shown in the figures. After washing with PBS containing 1% BSA and 0.1% saponin, cells were stained with secondary Alexa 488 conjugated antibodies. Stained cells were assessed with a FACSCanton II cytometer, and analyzed using Flowjo software.

monocytes [6] = conditions: cited from earlier work

GM-CSF: Recombinant human GM-CSF, produces macrophage 1 (Mφ1) [reference compound]
FGF-Basic release (monocytes [1]): 10.85 ± 0.22 | G-CSF release (monocytes [1]): 74.85 ± 2.60 | HGF release (monocytes [1]): 505.18 ± 118.32 | IFN-α release (monocytes [1]): 14.33 ± 1.27 | IFN-γ release (monocytes [1]): 13.5 ± 0.47 | IL-2R release (monocytes [1]): 47.16 ± 1.23 | IL-4 release (monocytes [1]): 11.82 ± 0.98 | IL-7 release (monocytes [1]): 26.89 ± 0.16 | MCP-1 release (monocytes [1]): 15362.1 ± 7902.6 | MIG release (monocytes [1]): 17.21 ± 1.30 | MIP-1α release (monocytes [1]): 72.20 ± 6.18 | MIP-1β release (monocytes [1]): 70.42 ± 19.71 | RANTES release (monocytes [1]): 5.42 ± 1.85 | VEGF release (monocytes [1]): 15.88 ± 2.99

LL-37
IL-1ra, IL-10, IL-12, IP-10, GM-CSF production in response to LPS (monocytes [1]; 6-day cells, 100 ng/mL LPS 18 hours, versus M-CSF/RANKL-differentiated monocytes): increased production | IL-1ra release versus other macrophage lineages (monocytes [1]; 6 days): highest levels | IL-1β release versus other macrophage lineages (monocytes [1]; 6 days): lowest level | IL-6 release versus macrophages generated by the other methods (monocytes [1]; 6 days): significantly less | IP-10 release versus macrophages generated by the other methods (monocytes [1]; 6 days): increased | IL-1ra release versus osteoclasts (monocytes [1]; all time points analyzed): higher levels | IL-1β, IL-6, MCP-1 release versus osteoclasts (monocytes [1]; all time points analyzed): lower levels | FGF-Basic release (monocytes [1]): 10.28 ± 0.66 | G-CSF release (monocytes [1]): 51.79 ± 3.38 | GM-CSF release (monocytes [1]): 3.96 ± 0.30 | HGF release (monocytes [1]): 772.94 ± 126.71 | IFN-α release (monocytes [1]): 9.93 ± 0.14 | IFN-γ release (monocytes [1]): 12.13 ± 0.88 | IL-2R release (monocytes [1]): 32.38 ± 7.04 | IL-4 release (monocytes [1]): 7.16 ± 0.59 | IL-7 release (monocytes [1]): 11.93 ± 1.96 | MCP-1 release (monocytes [1]): 7720.3 ± 972.2 | MIG release (monocytes [1]): 7.16 ± 1.31 | MIP-1α release (monocytes [1]): 53.17 ± 12.97 | MIP-1β release (monocytes [1]): 72.41 ± 9.86 | RANTES release (monocytes [1]): 10.24 ± 3.87 | VEGF release (monocytes [1]): 3.88 ± 0.41 | doses that led to decreased cell numbers (monocytes [2]): ≥ 10 µM | cell number versus untreated controls (monocytes [2]; 5 μM, 6 days): significantly higher than untreated controls | cell morphology (monocytes [2]; 6 days of treatment): differentiated into large round adherent cells | survival in terms of cell numbers (monocytes [2]; after 28 days, versus M-CSF/RANKL-derived osteoclasts): survive better than M-CSF/RANKL-derived osteoclasts | dose of maximum effect (monocytes [2]; monocyte differentiation and cell number): 5 µM | structures formed on Osteologic Discs (monocytes [3]; 3 weeks, cells removed by bleach, LL-37 5 μM, M-CSF/RANKL both 25 ng/mL): formed refractile specks on the discs instead of classical absorption pits | von Kossa staining of granules (mineralization) (monocytes [3]; 5 weeks of co-culture): positive von Kossa staining | phagocytic function (monocytes [4]): retain their phagocytic function | expression of CD163, DC-SIGN, CD14 versus other macrophage lineages (monocytes [5]): lower levels | toxicity of LL-37 (monocytes [6]): > 10 µM

B1: M-CSF: Recombinant human M-CSF, produces macrophage 2 (Mφ2) (protein, UniProt P09603 33-554, looked up)
Macrophage colony-stimulating …: EEVSEYCSHMIGSGHLQSLQRLIDSQMETSCQITFEFVDQEQLKDPVCYLKKAFLLVQDIMEDTMRFRDNTPNAIAIVQLQELSLRLKSCFTKDYEEHDKACVRTFYETPLQLLEKVKNVFNETKNLLDKDWNIFSKNCNNSFAECSSQDVVTKPDCNCLYPKAIPSSDPASVSPHQPLAPSMAPVAGLTWEDSEGTEGSSLLPGEQPLHTVDPGSAKQRPPRSTCQSFEPPETPVVKDSTIGGSPQPRPSVGAFNPGMEDILDSAMGTNWVPEEASGEASEIPVPQGTELSPSRPGGGSMQTEPARPSNFLSASSPLPASAKGQQPADVTGTALPRVGPVRPTGQDWNHTPQKTDHPSALLRDPPEPGSPRISSLRPQGLSNPSTLSAQPQLSRSHSSGSVLPLGELEGRRSTRDRRSPAEPEGGPASEGAARPLPRFNSVPLTDTGHERQSEGSFSPQLQESVFHLLVPSVILVLLAVGGLLFYRWRRRSHQEPQRADSPLEQPEGSPLTQDDRQVELPV
FGF-Basic release (monocytes [1]): 11.54 ± 0.31 | G-CSF release (monocytes [1]): 75.71 ± 5.78 | GM-CSF release (monocytes [1]): 25.2 ± 5.51 | HGF release (monocytes [1]): 664.33 ± 112.85 | IFN-α release (monocytes [1]): 19.83 ± 1.19 | IFN-γ release (monocytes [1]): 14.67 ± 1.06 | IL-2R release (monocytes [1]): 44.62 ± 4.89 | IL-4 release (monocytes [1]): 11.07 ± 0.95 | IL-7 release (monocytes [1]): 24.83 ± 1.68 | MCP-1 release (monocytes [1]): 34236.5 ± 1606.8 | MIG release (monocytes [1]): 15.39 ± 2.01 | MIP-1α release (monocytes [1]): 41.62 ± 2.63 | MIP-1β release (monocytes [1]): 47.26 ± 1.46 | RANTES release (monocytes [1]): 10.19 ± 1.38 | VEGF release (monocytes [1]): 22.12 ± 1.39
